Measurements published in patent US20060069132A1, “Azolecarboxamide herbicides” (priority 2004, published 2006).

Key:
[1] = system: corn; assay: Test C pre-/postemergence herbicide test; format: in vivo, Zea mays; conditions: for Plant response rating (0 = no effect, 100 = complete control), Corn: 62 g ai/ha; for Plant response rating (0 = no effect, 100 = complete control), Corn / Plant response rating, Corn: preemergence; for Plant response rating, Corn: visual, 12 to 14 days; for Corn plant response rating: Preemergence, 500 g ai/ha, scale 0 to 100, 0 no effect, 100 complete control
Summary of the method: (§1)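 Pre/post spray; non-phytotoxic solvent + surfactant. Post-timing 1–4 leaves, 2–18 cm. Read-out: visual % control vs untreated, day 12–14, greenhouse.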

[2] = system: ducksalad; assay: Test C flooded paddy test; format: in vivo, Heteranthera limosa; conditions: for Plant response rating, Ducksalad: 500 g ai/ha, visual rating after 12 to 14 days
[3] = system: barnyardgrass; assay: Test C flooded paddy test; format: in vivo, Echinochloa crus-galli; conditions: for Plant response rating, Barnyardgrass: 500 g ai/ha, visual rating after 12 to 14 days
Summary of the method: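 Postemergence sprays were applied to plants 2 to 18 cm tall (1- to 4-leaf stage); in the flooded paddy test, barnyardgrass was grown to the 2-leaf stage. After 12 to 14 days in a greenhouse, injury was visually rated against untreated controls on a 0–100 scale (100 = complete control).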

[4] = system: giant foxtail; assay: Test B pre-/postemergence herbicide test; format: in vivo, Setaria faberi
Summary of the method: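 Visual rating, 0 (no effect) to 100 (complete control), versus untreated controls after 13–15 d in greenhouse. Pre- and postemergence applications (postemergence plants 2–18 cm, 1–4 leaves); flooded paddy arm at 2-leaf stage. Compounds in non-phytotoxic solvent plus surfactant.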

[5] = system: cocklebur; assay: Test C pre-/postemergence herbicide test; format: in vivo, Xanthium strumarium; conditions: for Plant response rating (0 = no effect, 100 = complete control), Cocklebur: 62 g ai/ha; for Plant response rating (0 = no effect, 100 = complete control), Cocklebur / Plant response rating, Cocklebur: preemergence; for Plant response rating, Cocklebur: visual, 12 to 14 days; for Cocklebur plant response rating: Preemergence, 500 g ai/ha, scale 0 to 100, 0 no effect, 100 complete control
Summary of the method: as §1

[6] = system: yellow nutsedge; assay: Test C pre-/postemergence herbicide test; format: in vivo, Cyperus esculentus; conditions: for Plant response rating (0 = no effect, 100 = complete control), Nutsedge, Yellow: 62 g ai/ha; for Plant response rating (0 = no effect, 100 = complete control), Nutsedge, Yellow / Plant response rating, Nutsedge, Yellow: preemergence; for Plant response rating, Nutsedge, Yellow: 125 g ai/ha, scale 0 (no effect) to 100 (complete control), visual, 12 to 14 days; for Nutsedge, Yellow plant response rating: Preemergence, 500 g ai/ha, scale 0 to 100, 0 no effect, 100 complete control
Summary of the method: as §1

[7] = system: kochia; assay: Test C pre-/postemergence herbicide test; format: in vivo, Kochia scoparia; conditions: for Plant response rating (0 = no effect, 100 = complete control), Kochia: 62 g ai/ha; for Plant response rating (0 = no effect, 100 = complete control), Kochia / Plant response rating, Kochia: preemergence; for Plant response rating, Kochia: 125 g ai/ha, scale 0 (no effect) to 100 (complete control), visual, 12 to 14 days; for Kochia plant response rating: Preemergence, 500 g ai/ha, scale 0 to 100, 0 no effect, 100 complete control
Summary of the method: as §1

[8] = system: giant foxtail; assay: Test A pre-/postemergence herbicide test; format: in vivo, Setaria faberi
Summary of the method: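 Greenhouse injury scoring (0–100, complete control = 100) at approximately ten days follows simultaneous pre- and postemergence application. Soil received a directed spray after seeding; seedlings of 2–10 cm at the one- to two-leaf stage were sprayed to runoff.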

[9] = system: pigweed; assay: Test C pre-/postemergence herbicide test; format: in vivo, Amaranthus retroflexus; conditions: for Plant response rating (0 = no effect, 100 = complete control), Pigweed: 62 g ai/ha; for Plant response rating (0 = no effect, 100 = complete control), Pigweed / Plant response rating, Pigweed: preemergence; for Plant response rating, Pigweed: 125 g ai/ha, scale 0 (no effect) to 100 (complete control), visual, 12 to 14 days; for Pigweed plant response rating: Preemergence, 500 g ai/ha, scale 0 to 100, 0 no effect, 100 complete control
Summary of the method: as §1

[10] = 125 g ai/ha, scale 0 (no effect) to 100 (complete control)
[11] = 250 g ai/ha, scale 0 to 100 (0 no effect, 100 complete control)
[12] = 62 g ai/ha, scale 0 to 100 (0 no effect, 100 complete control)
[13] = 125 g ai/ha, scale of 0 to 100, 0 is no effect, 100 is complete control
[14] = 250 g ai/ha, scale of 0 to 100, 0 is no effect, 100 is complete control
[15] = scale 0 to 100 (0 no effect, 100 complete control)
[16] = Postemergence, 500 g ai/ha, visual rating after 13 to 15 days, scale 0 (no effect) to 100 (complete control)
[17] = Preemergence, 500 g ai/ha, scale 0 to 100
[18] = postemergence, 125 g ai/ha, visual rating, scale 0 (no effect) to 100 (complete control)
[19] = preemergence, 125 g ai/ha, 0 to 100 scale, 0 is no effect, 100 is complete control
[20] = Postemergence, 500 g ai/ha, 0 to 100 scale, 0 no effect, 100 complete control
[21] = Postemergence, 2000 g ai/ha, 0 to 100 scale, 0 no effect, 100 complete control
[22] = Preemergence, 500 g ai/ha, visual rating, 0 to 100 scale (0 no effect, 100 complete control)
[23] = Preemergence, 2000 g ai/ha, 0 to 100 scale, 0 no effect, 100 complete control

| Compound | Plant response rating (0 = no effect, 100 = complete control), Corn [1] | Plant response rating, Corn [1, 10] | Plant response rating, Corn [1, 11] | Corn plant response rating [1] | Ducksalad plant response rating [2, 12] | Ducksalad plant response rating [2, 13] | Ducksalad plant response rating [2, 14] | Plant response rating, Ducksalad [2, 15] | Barnyardgrass plant response rating [3, 12] | Barnyardgrass plant response rating [3, 13] | Barnyardgrass plant response rating [3, 14] | Plant response rating, Barnyardgrass [3, 15] | Plant response rating, Foxtail, Giant [4, 16] | Foxtail, Giant plant response rating [4, 17] | Foxtail, Giant plant response rating [4, 18] | Plant response rating, Foxtail, Giant [4, 19] | Plant response rating (0 = no effect, 100 = complete control), Cocklebur [5] | Plant response rating, Cocklebur [5, 10] | Plant response rating, Cocklebur [5, 11] | Cocklebur plant response rating [5] | further results |
| --- | --- | --- | --- | --- | --- | --- | --- | --- | --- | --- | --- | --- | --- | --- | --- | --- | --- | --- | --- | --- | --- |
| CCCN1CCc2c(NC(=O)c3cc(C(C)(C)C)nn3CC)cccc2C1=O [Compound 65] | 0 | 0 | 10 | 20 | 15 | 45 | 75 | 85 | 0 | 0 | 30 | 60 | 20 | 80 | 10 | 20 | 0 | 0 | 0 | 0 | Plant response rating (0 = no effect, 100 = complete control), Nutsedge, Yellow [6]: 0; Plant response rating, Nutsedge, Yellow [6]: 0; Nutsedge, Yellow plant response rating [6]: 0; Plant response rating (0 = no effect, 100 = complete control), Kochia [7]: 10; Plant response rating, Kochia [7]: 70; Kochia plant response rating [7]: 90; Plant response rating, Foxtail, Giant [8, 20]: 30; Plant response rating, Foxtail, Giant [8, 21]: 55; Foxtail, Giant plant response rating [8, 22]: 40; Foxtail, Giant plant response rating [8, 23]: 80; Plant response rating (0 = no effect, 100 = complete control), Pigweed [9]: 70; Plant response rating, Pigweed [9]: 100; Pigweed plant response rating [9]: 100 |
| CCOC(=O)c1cccc(NC(=O)c2cc(C(C)(C)C)nn2CC)c1C [Compound 88] | 0 | 5 | 5 | 60 | 0 | 15 | 40 | 75 | 0 | 0 | 15 | 45 | 40 | 90 | 30 | 70 | 0 | 0 | 0 | 0 | Plant response rating (0 = no effect, 100 = complete control), Nutsedge, Yellow [6]: 0; Plant response rating, Nutsedge, Yellow [6]: 0; Nutsedge, Yellow plant response rating [6]: 0; Plant response rating (0 = no effect, 100 = complete control), Kochia [7]: 0; Plant response rating, Kochia [7]: 85; Kochia plant response rating [7]: 100; Foxtail, Giant plant response rating [8, 20]: 20; Plant response rating, Foxtail, Giant [8, 21]: 60; Foxtail, Giant plant response rating [8, 22]: 55; Foxtail, Giant plant response rating [8, 23]: 90; Plant response rating (0 = no effect, 100 = complete control), Pigweed [9]: 100; Plant response rating, Pigweed [9]: 100; Pigweed plant response rating [9]: 100 |
